# According to the METLIN SMRT retention time set (Domingo-Almenara et al. 2019):
# Assay: gradient 5% acetonitrile 3 min, to 50% in 2 min, to 85% in 15 min, held 3 min, 100 µL/min
# Conditions: column: Zorbax Extend-C18 2.1 x 50 mm; eluents: water / acetonitrile, 0.1% formic acid
# Procedure, shortened: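 In both positive and negative ionization mode, a quadrupole time-of-flight mass spectrometer coupled to HPLC analyzed pure standards run in mixtures of ~100 molecules. The Zorbax Extend-C18 column (2.1 × 50 mm, 1.8 μm) was operated at 100 μL/min with water and acetonitrile, each containing 0.1% formic acid. The dead volume was 40 μL and the dwell volume 900 μL. Retention time came from adduct peaks that were computationally picked and individually inspected by hand.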
row,SMILES,RP-LC retention time [s]
1,CCCN1CCN(C(=O)C2CCN(S(=O)(=O)c3ccc4c(c3)NC(=O)C(C)S4)CC2)CC1 (stereo unspecified),593
2,CCCn1nnc(NCc2ccc(-c3ccc(Cl)cc3Cl)o2)n1,1200
3,CSc1ccc(CNC(=O)c2[nH]c3cc(C)sc3c2CN(C)C)cc1,689
4,O=C(Cc1cccc(F)c1)N1CCC2(C1)C(=O)Nc1ccccc12 (stereo unspecified),713
5,Cc1ccccc1Nc1c(-c2cccc(Cl)c2)nc2cnccn12,1000
6,COc1ccc(S(=O)(=O)NCc2ccc3c(c2)CCN3C(=O)CC(C)C)cc1OC,858
7,Cc1nnc(-c2coc(S(=O)(=O)N3CCCCC3C)c2)o1 (stereo unspecified),809
8,COC(=O)c1ccc2c(=O)n(CCc3ccccc3)c(N3CCC(C(N)=O)CC3)nc2c1,774
9,CCc1ccc(-c2cc(C(=O)N3CCCN(c4cc(=O)n(C(C)C)c(=O)n4C(C)C)CC3)[nH]n2)cc1,946
10,COCCCNC(=O)N1CCCC1c1nc(-c2cccc(Cl)c2)no1 (stereo unspecified),853
11,O=C1NC2(CCN(C(=O)Nc3ccccc3Cl)CC2)Oc2ccccc21,765
12,COc1ccc(NC(=O)C(C)n2cnc3nc4c(cc3c2=O)CCCC4)cc1OC (stereo unspecified),685
13,COc1ccc2[nH]cc(CCNC(=O)c3c(-c4ccccn4)noc3C)c2c1,846
14,COc1ccc(OC)c(S(=O)(=O)N2CCc3nc(-c4ccccc4)ncc3C2)c1,998
15,Cc1ccc(CNC(=O)c2cc3n(n2)CCCN(Cc2cccc(F)c2)C3=O)o1,853
16,Cc1nnsc1C(=O)N1CCC(C(=O)Nc2nccs2)CC1,625
17,CCn1cc(CCNC(=O)CC2CCCC2)c2cccnc21,701
18,CCSc1nnc(NC(=O)Cc2csc(NC(=O)c3cnccn3)n2)s1,678

row,SMILES,RP-LC retention time [s]
1,CCn1nccc1C(=O)N1CCN(C(=O)N2C[C@H]3C[C@H](C2)[C@H]2CCCC(=O)N2C3)CC1,609
2,CNC(=O)C1CC(=O)N(C2CCCCC2)C1 (stereo unspecified),609
3,COc1ccc(C2C(C(=O)NCc3ccco3)c3cc(OC)c(OC)cc3C(=O)N2C)cc1 (stereo unspecified),758
4,CCNC(=O)c1cc(N2CCCC2)nc2ccc(F)cc12,580
5,CN(CC1CCOCC1)C(=O)Nc1cc(F)cc(F)c1,754
6,Cc1cccc(C)c1NC(=O)Cn1c(=O)n(Cc2ccc(F)cc2)c(=O)c2nccnc21,781
7,Cc1cc(S(=O)(=O)N2CCc3nc(-c4ccccc4)ncc3C2)ccc1F,1090
8,CCn1cnc(S(=O)(=O)N2CCC(C(=O)NCc3ccc(C)cc3)CC2)c1,797
9,O=C(Cc1cccc(F)c1)NC1CCN(c2cc(-c3ccc(F)cc3)[nH]n2)C1 (stereo unspecified),716
10,CCc1nc(-c2csc(S(=O)(=O)N3CCC(C(=O)Nc4ccc(F)c(Cl)c4)CC3)c2)no1,1150
11,Cc1ccc2c(=O)c(C(=O)N3CCCC3)cn(CC(=O)Nc3ccc(F)cc3F)c2n1,692
12,O=C(C1CC1)N1CCc2sc(S(=O)(=O)NCc3ccccc3Cl)cc2C1,855
13,COCc1cc(=O)n(CC(=O)Nc2ccc(C)cc2C)c(N)n1,584
14,CCc1ccc(NC(=O)C2CCCN(S(=O)(=O)c3c[nH]c(C(=O)N4CCCCCC4)c3)C2)cc1 (stereo unspecified),923
15,Cc1ccn2c(NC(=O)c3cccc(Cl)c3)c(-c3ccccc3)nc2c1,682
16,Cc1c(CNCCc2ccco2)c(C(=O)O)c(C)n1Cc1ccc(F)cc1,709
17,CCCNC(=O)C1CCN(c2ccc(SCC(=O)Nc3ccc(OC)cc3)nn2)CC1,611

# Further lines, results first:
row,RP-LC retention time [s],SMILES
1,984,COc1ccc(-n2ccc(=O)c(-c3nc(-c4ccccc4OCc4ccccc4)no3)n2)cc1
2,1100,COc1ccc2ncc(S(=O)(=O)c3ccc(C)c(Cl)c3)c(OC)c2c1
3,879,Cc1cccc(CN2CCCn3nc(C(=O)NC4CCCC4)cc3C2=O)c1
4,798,COc1cccc(-c2cc(C(=O)N3CC(c4nc(-c5cccs5)no4)C3)[nH]n2)c1
5,579,Cc1cc(C(=O)N2CCCC2c2nncn2C(C)C)n[nH]1 (stereo unspecified)
6,622,CS(=O)(=O)N1CCCc2ccc(NS(=O)(=O)CCN3C(=O)CCCC3=O)cc21
7,886,Cc1ccc(N2C=C(C(=O)N3CCOCC3)S(=O)(=O)c3ccc(Cl)cc32)cc1F
8,658,Cc1cc(C)cc(S(=O)(=O)Nc2ccc3nc(N4CCN(CCC#N)CC4)cc(C(=O)O)c3c2)c1
9,1020,CC(C)Oc1ccc(-c2noc(CCn3nc(-c4ccc5c(c4)OCO5)ccc3=O)n2)cc1
10,776,O=C(c1cccc(Cl)c1)N1CCC(n2c(-c3ccoc3)nc3cccnc32)C1 (stereo unspecified)
11,1060,O=c1ccc(-c2ccc3c(c2)OCO3)nn1CCc1nc(-c2cccc(Br)c2)no1
12,664,c1cc(-c2noc(-c3ccsc3)n2)cc(N2CCCC2)n1
13,592,OCCN1CCN(c2ncnc3c2cnn3-c2ccccc2Cl)CC1
14,1020,Cc1cc(C(=O)Nc2ccc(-c3nc4ccccc4o3)cc2)c(C)o1
15,634,CCOc1ccccc1N1CCN(c2cc(C(=O)O)c3cc(NC(=O)CC)ccc3n2)CC1
16,992,CCOC(=O)c1cccc(Nc2c(-c3ccc(Cl)cc3)nc3cnccn23)c1

row,RP-LC retention time [s],SMILES
1,782,O=C1CCCc2cc(S(=O)(=O)N3CCCC3C(=O)NC3CCCCCC3)ccc2N1 (stereo unspecified)
2,1230,COC(=O)c1ccccc1NC(=O)c1nnn(-c2cc(C)ccc2Cl)c1C
3,831,COc1ccc(CNC(=O)C2CCN(S(=O)(=O)c3cc(-c4noc(C)n4)cs3)CC2)cc1
4,872,Cc1cc(=O)n(CC(=O)NC(C)CCc2ccccc2)c(N2CCc3ccccc3C2)n1 (stereo unspecified)
5,851,Cc1ccc(CNC(=O)C2CCCN(c3ncc(-c4cccc(F)c4)cn3)C2)o1 (stereo unspecified)
6,826,CCN(Cc1ccccc1)c1ccc(-c2noc(CN3CCOCC3)n2)cn1
7,830,COCCCNC(=O)Cc1csc(SCc2ccc(Br)cc2)n1
8,1060,O=C(C1CCC1)N1CCCC1c1nc(-c2cccc(Cl)c2)no1 (stereo unspecified)
9,818,Cc1cc(C2CCCN2C(=O)Nc2ccc(C)c(F)c2)no1 (stereo unspecified)
10,945,COC(=O)c1ccc(-c2csc(NC(=O)c3c(F)cccc3Cl)n2)cc1
11,1090,Cc1ccc(C(=O)Nc2nc(-c3ccccc3)cs2)cc1[N+](=O)[O-]
12,761,COc1ccc(NC(=O)NC2CCN(c3ccccc3)C2=O)c(OC)c1 (stereo unspecified)
13,723,Cc1c(S(=O)(=O)N2c3ccccc3CC2C)cc(C(=O)N2CCC(C)CC2)n1C (stereo unspecified)
14,712,O=C(c1cc2ccccc2o1)N1CCC(CNS(=O)(=O)C2CC2)CC1
15,588,CCNc1cc(N2CCC(CCC(=O)NCC3CC3)CC2)ncn1
